Reference: patent publication US12491252B2, “Substituted 3-amino-5-phenylbenzamide compounds as covalent inhibitors of enhancer zeste homolog 2 (EZH2) and proteolysis-targeting chimeric derivatives thereof (PROTACs) that induce degradation of EZH2” (Northwestern University, priority 2021, dated 2025)
Blank lines part the entries; values can stand above or below the compound they belong to.

What was measured:
EZH2 [1] = target: T1, EZH2 (Homo sapiens, UniProt Q15910); experiment: Western blot of EZH2 protein in C4-2B cells; details: for Degrading EZH2 protein: FIG. 5, 24 or 48 hours; for Degradation of EZH2: FIG. 14, 10 μM for 6 days
[2] = Pharmacokinetics in mice, IP cassette dosing, plasma LC/MS/MS; format: in vivo, C57Bl/6 mouse; details: mouse, C57Bl/6 mice, 4 mg/kg IP, cassette format
Method: FIG. 35. Pharmacokinetics of indicated compounds. Compounds were administered to C57Bl/6 mouse mice at 4 mg/kg using intraperitoneal (IP) injection in cassette format. Plasma was collected at the indicated time points and analyzed by LC/MS/MS using standard methods.
For assessing pharmacokinetics, compounds were administered to C57Bl/6 mouse mice at 4 mg/kg using intraperitoneal (IP) injection in cassette format. Plasma was collected at the indicated time points and analyzed by LC/MS/MS using standard methods.

H3K27me3 = experiment: Western blot of H3K27me3 levels in C4-2B cells; format: cell-based; details: FIG. 14, 10 μM for 6 days
SUZ12 = experiment: Western blot of SUZ12 in C4-2B cells; format: cell-based; details: FIG. 14, 10 μM for 6 days
EZH2 [3] = target: T1, EZH2; experiment: Western blot of EZH2 with esiRNA knockdown of VHL or siRNA control; format: cell-based; details: FIG. 16; siRNA control lane; duplicate
Method: FIG. 16. Cells were treated with indicated compounds with either esiRNA knockdown of VHL or siRNA control (no EZH2 knockdown) and blotted for EZH2 and VHL. […] Experiment was run in duplicate with both replicates shown on the left and right sides.

C4-2B cells [4] = experiment: Colony assay using C4-2B cells; format: cell-based; details: FIG. 20B, treatment for 7 days
Method: (§1) FIG. 20A-20B. (FIG. 20A) Live imaging cell proliferation of C4-2B cells. Cells were treated with indicated compounds and monitored over 168 hours for proliferation by phase object confluence. DMSO is set as the negative control. […] (FIG. 20B) Colony assays using C4-2B cells after treatment with the indicated compounds for 7 days.

C4-2B cells [5] = experiment: Imaging of C4-2B cells (cell density); format: cell-based; details: FIG. 21, 12 days' treatment
Description: FIG. 21. Imaging of C4-2B cells after 12 days' treatment with the indicated compounds.

LNCaP cells [6] = experiment: Colony assay using LnCaP cells; format: cell-based; details: FIG. 17B, treatment for 7 days
Method: as §1, with “FIG. 17A-17B.” for “FIG. 20A-20B.”, “(FIG. 17A)” for “(FIG. 20A)”, “of LNCaP” for “of C4-2B”, “(FIG. 17B)” for “(FIG. 20B)”, “using LnCaP” for “using C4-2B”

LNCaP cells [7] = experiment: Live imaging cell proliferation of LNCaP cells; format: cell-based; details: FIG. 17A, monitored over 168 hours
Description: FIG. 17A-17B. (FIG. 17A) Live imaging cell proliferation of LNCaP cells. […] DMSO is set as the negative control. […] (FIG. 17B) Colony assays using LnCaP cells after treatment with the indicated compounds for 7 days.

EZH2 [8] = target: T1, EZH2; experiment: Western blot of EZH2 protein in PC3 cells; details: FIG. 26, 6 days treatment
Description: (Upper right western blot) Western blot analysis of EZH2 protein in PC3 cells after 6 days treatment.

LNCaP cells [9] = experiment: Imaging of LnCaP cells (cell density); format: cell-based; details: FIG. 18, 12 days' treatment
Description: FIG. 18. Imaging of LnCaP cells after 12 days' treatment with the indicated compounds.

C4-2B cells [10] = experiment: Live imaging cell proliferation of C4-2B cells; format: cell-based; details: FIG. 20A, monitored over 168 hours
Description: FIG. 20A-20B. (FIG. 20A) Live imaging cell proliferation of C4-2B cells. […] DMSO is set as the negative control. […] (FIG. 20B) Colony assays using C4-2B cells after treatment with the indicated compounds for 7 days.

EZH2 [11] = target: T1, EZH2; experiment: Western blot of EZH2 protein in DU-145 cells; details: FIG. 27, 6 days treatment
Description: (Upper right western blot) Western blot analysis of EZH2 protein in DU-145 cells after 6 days treatment.

[12] = FIG. 7, 24 hours, 5 μM or 10 μM MG132
[13] = FIG. 1, increasing doses 24 or 48 hours, or 0.5 μM over a time course

T1 sequence (Q15910 whole entry): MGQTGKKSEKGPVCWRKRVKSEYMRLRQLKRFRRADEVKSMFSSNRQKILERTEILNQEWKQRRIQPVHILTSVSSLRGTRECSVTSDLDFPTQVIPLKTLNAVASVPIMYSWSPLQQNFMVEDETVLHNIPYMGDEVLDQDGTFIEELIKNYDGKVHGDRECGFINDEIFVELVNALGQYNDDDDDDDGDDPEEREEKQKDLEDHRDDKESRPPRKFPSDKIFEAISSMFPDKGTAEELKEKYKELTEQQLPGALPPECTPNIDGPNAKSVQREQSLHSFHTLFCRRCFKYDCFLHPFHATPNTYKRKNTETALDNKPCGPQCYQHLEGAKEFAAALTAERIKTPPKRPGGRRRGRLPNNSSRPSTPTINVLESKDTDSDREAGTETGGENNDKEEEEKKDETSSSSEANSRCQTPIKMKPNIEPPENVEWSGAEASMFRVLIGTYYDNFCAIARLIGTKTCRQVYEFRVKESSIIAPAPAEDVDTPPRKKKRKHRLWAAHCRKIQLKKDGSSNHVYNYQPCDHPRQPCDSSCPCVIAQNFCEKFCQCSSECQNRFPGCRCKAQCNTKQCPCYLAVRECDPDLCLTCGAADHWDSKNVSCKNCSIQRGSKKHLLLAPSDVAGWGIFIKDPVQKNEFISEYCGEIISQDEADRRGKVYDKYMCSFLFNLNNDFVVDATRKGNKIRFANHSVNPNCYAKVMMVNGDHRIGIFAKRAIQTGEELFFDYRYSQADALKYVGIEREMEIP
T1 sequence (Q15022 whole entry partner): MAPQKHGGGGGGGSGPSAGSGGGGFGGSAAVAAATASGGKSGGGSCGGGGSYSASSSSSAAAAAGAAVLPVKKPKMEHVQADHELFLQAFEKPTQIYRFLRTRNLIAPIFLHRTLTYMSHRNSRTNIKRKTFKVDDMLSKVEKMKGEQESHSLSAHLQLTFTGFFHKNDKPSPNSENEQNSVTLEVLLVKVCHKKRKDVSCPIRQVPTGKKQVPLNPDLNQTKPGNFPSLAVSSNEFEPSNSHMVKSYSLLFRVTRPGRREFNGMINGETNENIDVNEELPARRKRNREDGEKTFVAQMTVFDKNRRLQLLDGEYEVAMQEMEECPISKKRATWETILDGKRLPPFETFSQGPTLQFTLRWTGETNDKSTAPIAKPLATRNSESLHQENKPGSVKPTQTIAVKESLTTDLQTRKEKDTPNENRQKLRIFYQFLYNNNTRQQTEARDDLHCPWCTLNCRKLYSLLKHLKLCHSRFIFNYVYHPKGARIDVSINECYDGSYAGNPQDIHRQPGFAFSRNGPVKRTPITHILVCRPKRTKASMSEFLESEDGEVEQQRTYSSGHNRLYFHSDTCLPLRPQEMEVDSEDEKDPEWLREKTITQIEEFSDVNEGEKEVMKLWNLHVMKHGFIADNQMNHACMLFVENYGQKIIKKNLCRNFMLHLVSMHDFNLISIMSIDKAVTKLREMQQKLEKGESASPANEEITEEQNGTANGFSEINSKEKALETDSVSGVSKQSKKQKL
T1 sequence (O75530 whole entry partner): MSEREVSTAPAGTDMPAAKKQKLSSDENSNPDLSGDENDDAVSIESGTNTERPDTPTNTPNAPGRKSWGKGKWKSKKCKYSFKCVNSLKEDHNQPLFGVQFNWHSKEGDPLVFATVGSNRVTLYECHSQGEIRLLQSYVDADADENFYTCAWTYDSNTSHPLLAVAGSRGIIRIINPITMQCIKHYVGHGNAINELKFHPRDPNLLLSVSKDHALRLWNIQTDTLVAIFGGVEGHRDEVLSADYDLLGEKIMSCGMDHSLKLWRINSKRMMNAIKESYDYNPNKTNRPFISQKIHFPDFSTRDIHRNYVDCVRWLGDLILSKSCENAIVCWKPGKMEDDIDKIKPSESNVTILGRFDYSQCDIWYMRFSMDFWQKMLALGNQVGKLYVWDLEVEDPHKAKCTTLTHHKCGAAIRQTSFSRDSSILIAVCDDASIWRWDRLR

EZH2 protein levels (western blot) (EZH2 [1]; FIG. 28, 24 hours): reduce EZH2 protein levels
SMILES: CCN(c1cc(-c2ccc(CN3CCOCC3)cc2)cc(C(=O)NCc2c(C)cc(C)[nH]c2=O)c1C)C1CCN(C(=O)CCCCCCCCCCC(=O)NCCOc2cccc3c2C(=O)N(C2CCC(=O)NC2=O)C3=O)CC1 (stereo not drawn) [Compound 2099]

EZH2 protein levels (western blot) (EZH2 [1]; FIG. 28, 24 hours): reduce EZH2 protein levels
SMILES: CCN(c1cc(-c2ccc(CN3CCOCC3)cc2)cc(C(=O)NCc2c(C)cc(C)[nH]c2=O)c1C)C1CCN(C(=O)CCCCCCCCCCCCCCC(=O)NCCOc2cccc3c2C(=O)N(C2CCC(=O)NC2=O)C3=O)CC1 (stereo not drawn) [Compound 2100]

EZH2 protein levels (western blot) (EZH2 [1]; FIG. 28, 24 hours): inactive at degrading EZH2
SMILES: CCN(c1cc(-c2ccc(CN3CCN(C(=O)COCC(=O)NCCCC(=O)NCCOc4cccc5c4C(=O)N(C4CCC(=O)NC4=O)C5=O)CC3)cc2)cc(C(=O)NCc2c(C)cc(C)[nH]c2=O)c1C)C1CCOCC1 (stereo not drawn) [Compound 2186]

EZH2 protein levels (western blot) (EZH2 [1]; FIG. 28, 24 hours): reduce EZH2 protein levels
SMILES: CCN(c1cc(-c2ccc(N3CCN(C(=O)CCC(=O)NCCCC(=O)NCCCC(=O)NCCCOc4cccc5c4C(=O)N(C4CCC(=O)NC4=O)C5=O)CC3)cc2)cc(C(=O)NCc2c(C)cc(C)[nH]c2=O)c1C)C1CCOCC1 (stereo not drawn) [Compound 2190]

half-life [2]: 210 to 360 min | EZH2 degradation, comparison within a list of VHL-PROTAC (EZH2 [1]; FIG. 4, 24 hours): most effective | Degrading EZH2 protein (EZH2 [1]): effective in degrading EZH2 protein | Degrading EZH2 protein, 2304 versus 2305 (EZH2 [1]; FIG. 6, 24 or 48 hours): more effective than 2305 | Restoration of EZH2 by proteasome inhibitor MG132 (EZH2 [1]; [12]): restored EZH2 | Restoration of EZH2 by proteasome inhibitor MG132 (EZH2 [1]; FIG. 11, 24 hours, 10 μM MG132): restored EZH2 | Degradation of EZH2 (EZH2 [1]): strong degradation of EZH2 | EZH2 protein levels (western blot) (EZH2 [1]; FIG. 28, 24 hours): significant reduction in EZH2
SMILES: CCN(c1cc(-c2ccc(CN3CCN(C(=O)CCCCCCCCCCC(=O)N[C@H](C(=O)N4C[C@H](O)C[C@@H]4C(=O)NCc4ccc(-c5scnc5C)cc4)C(C)(C)C)CC3)cc2)cc(C(=O)NCc2c(C)cc(C)[nH]c2=O)c1C)C1CCOCC1 [Compound 2304, (2R,4R)-1-[(2S)-2-(12-{4-[(3′-{[(4,6-dimethyl-2-oxo-1,2-dihydropyridin-3-yl)methyl]carbamoyl}-5′-[ethyl(oxan-4-yl)amino]-4′-methyl-[1,1′-biphenyl]-4-yl)methyl]piperazin-1-yl}-12-oxododecanamido)-3,3-dimethylbutanoyl]-4-hydroxy-N-{[4-(4-methyl-1,3-thiazol-5-yl)phenyl]methyl}pyrrolidine-2-carboxamide]
H3K27me3 levels (H3K27me3): reduced H3K27me3 levels | Reduction of PRC2 component SUZ12 (SUZ12): reduction of PRC2 component SUZ12

half-life [2]: 210 to 360 min | EZH2 protein levels (western blot) (EZH2 [1]; [13]): decreases EZH2 protein levels | Degrading EZH2 protein (EZH2 [1]): effective in degrading EZH2 protein | Restoration of EZH2 by proteasome inhibitor MG132 (EZH2 [1]; [12]): restored EZH2 | EZH2 protein levels (western blot) (EZH2 [1]; FIG. 28, 24 hours): significant reduction in EZH2
SMILES: CCN(c1cc(-c2ccc(CN3CCN(C(=O)CCCCCCCCCCCCCCC(=O)N[C@H](C(=O)C4C[C@H](O)C[C@H]4C(=O)NCc4ccc(-c5scnc5C)cc4)C(C)(C)C)CC3)cc2)cc(C(=O)NCc2c(C)cc(C)[nH]c2=O)c1C)C1CCOCC1 (stereo partly drawn) [Compound 2305]
Rescue of EZH2 protein degradation by proteasome inhibitor MG132 (EZH2 [1]; FIG. 2, 5 μM compound with or without MG132): can be rescued by proteasome inhibitor MG132

EZH2 protein levels (western blot) (EZH2 [1]; [13]): inactive | Degrading EZH2 protein, versus 2305 (EZH2 [1]; FIG. 12, 24 hours): less effective than 2305
SMILES: CCN(c1cc(-c2ccc(CN3CCN(C(=O)CCCCCCCCCCCCCCC(=O)N[C@H](C(=O)N4C[C@@H](O)C[C@H]4C(=O)NCc4ccc(-c5scnc5C)cc4)C(C)(C)C)CC3)cc2)cc(C(=O)NCc2c(C)cc(C)[nH]c2=O)c1C)C1CCOCC1 [Compound 3571]

Restoration of EZH2 by proteasome inhibitor MG132 (EZH2 [1]; FIG. 11, 24 hours, 10 μM MG132): restored EZH2
SMILES: CCN(c1cc(-c2ccc(CN3CCN(C(=O)CCCCCCCCC(=O)N[C@H](C(=O)N4C[C@H](O)C[C@H]4C(=O)NCc4ccc(-c5scnc5C)cc4)C(C)(C)C)CC3)cc2)cc(C(=O)NCc2c(C)cc(C)[nH]c2=O)c1C)C1CCOCC1 [Compound 6271]

Restoration of EZH2 by proteasome inhibitor MG132 (EZH2 [1]; FIG. 11, 24 hours, 10 μM MG132): restored EZH2
SMILES: CCN(c1cc(-c2ccc(CN3CCN(C(=O)CCCCCCCCCCCC(=O)N[C@H](C(=O)N4C[C@H](O)C[C@H]4C(=O)NCc4ccc(-c5scnc5C)cc4)C(C)(C)C)CC3)cc2)cc(C(=O)NCc2c(C)cc(C)[nH]c2=O)c1C)C1CCOCC1 [Compound 6273]

Degradation of EZH2 (EZH2 [1]): no ability to degrade EZH2
SMILES: CCN(c1cc(-c2ccc(CN3CCN(C(=O)CCCCCCCCCCC(=O)N[C@H](C(=O)N4C[C@@H](O)C[C@H]4C(=O)NCc4ccc(-c5scnc5C)cc4)C(C)(C)C)CC3)cc2)cc(C(=O)NCc2c(C)cc(C)[nH]c2=O)c1C)C1CCOCC1 [Compound 6285]

Ability to degrade EZH2 with siRNA control (VHL present) (EZH2 [3]): inactive control | Degradation of EZH2 (EZH2 [1]): no ability to degrade EZH2 | EZH2 protein (western blot) (EZH2 [8]): no changes | EZH2 protein (western blot) (EZH2 [11]): no changes
SMILES: CCN(c1cc(-c2ccc(CN3CCN(C(=O)CCCCCCCCCC(=O)N[C@H](C(=O)N4C[C@@H](O)C[C@H]4C(=O)NCc4ccc(-c5scnc5C)cc4)C(C)(C)C)CC3)cc2)cc(C(=O)NCc2c(C)cc(C)[nH]c2=O)c1C)C1CCOCC1 [Compound 6286]
Colonies (C4-2B cells [4]): attenuated anti-proliferative effects | Cell density by imaging (C4-2B cells [5]): attenuated anti-proliferative effects | Colonies (LNCaP cells [6]): attenuated anti-proliferative effects | Cell proliferation by phase object confluence (LNCaP cells [7]): limited ability to inhibit cell proliferation | Cell density by imaging (LNCaP cells [9]): attenuated anti-proliferative effects | Cell proliferation by phase object confluence (C4-2B cells [10]): limited ability to inhibit cell proliferation

Degradation of EZH2 (EZH2 [1]): no ability to degrade EZH2 | EZH2 protein (western blot) (EZH2 [8]): no changes | EZH2 protein (western blot) (EZH2 [11]): no changes
SMILES: CCN(c1cc(-c2ccc(CN3CCN(CCCCCCCCCCCC(=O)N[C@H](C(=O)N4C[C@@H](O)C[C@H]4C(=O)NCc4ccc(-c5scnc5C)cc4)C(C)(C)C)CC3)cc2)cc(C(=O)NCc2c(C)cc(C)[nH]c2=O)c1C)C1CCOCC1 [Compound 6300]
Colonies (C4-2B cells [4]): attenuated anti-proliferative effects | Cell density by imaging (C4-2B cells [5]): attenuated anti-proliferative effects | Colonies (LNCaP cells [6]): attenuated anti-proliferative effects | Cell proliferation by phase object confluence (LNCaP cells [7]): limited ability to inhibit cell proliferation | Cell density by imaging (LNCaP cells [9]): attenuated anti-proliferative effects | Cell proliferation by phase object confluence (C4-2B cells [10]): limited ability to inhibit cell proliferation

Ability to degrade EZH2 at 0.5 μM (EZH2 [1]; FIG. 28, 24 hours, 0.5 μM): no ability to degrade EZH2
SMILES: Cc1cc(C)c(CNC(=O)c2cc(-c3ccc(N4CCN(CCNC(=O)CC56CC7CC(CC(C7)C5)C6)CC4)nc3)cc3c2cnn3C(C)C)c(=O)[nH]1 [MS1943, reference compound]
